Patent US7674807B2, “Heterocycle-substituted n-phenyl-phthalamide derivatives, related compounds and their use as insecticides” (Bayer CropScience AG, priority 2004, dated 2010)

Experiments:
[1] = test system: larva of Spodoptera litura; assay: Test against larva of Spodoptera litura (leaf dip, sweet potato leaves); type: in vivo; details: 20 ppm concentration of the active component; third instar larvae; counted after 7 days; 25° C.
Experimental: Preparation of Test Solution:
In order to make an appropriate formulation of an active compound, 1 part by weight of the active compound was mixed with the above-mentioned amount of solvent containing the above-mentioned amount of emulsifier and the mixture was diluted with water to a prescribed concentration.
Leaves of sweet potato were soaked in the test solution diluted to a prescribed concentration with water, dried in the air and put in a dish of 9 cm diameter.
10 larvae of Spodoptera litura at the third instar were placed on the leaves and kept in a room at the constant temperature of 25° C. After 2 and 4 days further leaves of sweet potato were added and after 7 days the number of dead larvae was counted and the rate of death was calculated.
In this test the results of 2 dishes at 1 section were averaged.

[2] = test system: larva of Cnaphalocrocis medinalis Guenee; assay: Test against larva of Cnaphalocrocis medinalis Guenee (sprayed paddy rice foliage); type: in vivo; details: 20 ppm concentration of the active component; second instar larvae; counted after 7 days; 25° C.
Experimental: Paddy rice (variety: Tamanishiki) planted in a pot was treated by spraying 50 ml per pot of the diluted aqueous solution of the prescribed concentration of the active compound prepared in the same manner as in the above-mentioned Biological Test Example 1. After the treated rice plant was dried in the air, their foliage part was cut in 4-5 cm length, which were put in a dish with 9 cm diameter with a sheet of filter paper and 2 ml of water. Five larvae of Cnaphalocrocis medinalis Guenee at the second instar were put in the dish that was placed in a room at the constant temperature of 25° C. After 2 and 4 days, each rest (each ⅓ amount) of foliage parts of rice plant were cut in the same manner and added to the dish. After 7 days the number of dead larvae was counted and the rate of death was calculated. In this test the results of 2 dishes at 1 section were averaged.

Compound	controlling effect, rate of death [1]	controlling effect, rate of death [2]
CSCC(C)NC(=O)c1c(I)cccc1C(=O)Nc1ccc(Cc2c(C(F)(F)F)nn(C(F)F)c2OC(F)F)cc1C (stereo not drawn) [compound 262]	100%	100%
CCSCC(C)NC(=O)c1c(I)cccc1C(=O)Nc1ccc(Cn2nc(C(F)(F)F)cc2C(F)(F)F)cc1C (stereo not drawn) [compound 91]	100%	100%
Cc1cc(Cn2nc(C(F)(F)F)cc2C(F)(F)F)ccc1NC(=O)c1cccc(I)c1C(=O)NC(C)(C)CS(C)(=O)=O [compound 84, N^1-{4-[3,5-bis(trifluoromethyl)-1H-pyrazol-1-ylmethyl]-2-methylphenyl}-3-iodo-N^2-(2-methanesulfonyl-1,1-dimethylethyl)phthalamide]	100%	100%
Cc1cc(Cn2nc(C(F)(F)F)nc2C(F)(F)F)ccc1NC(=O)c1cccc(Cl)c1C(=O)NC(C)CS(C)(=O)=O (stereo not drawn) [compound 145]	100%	100%
Cc1cc(C(C)n2nc(C(F)(F)F)cc2C(F)(F)F)ccc1NC(=O)c1cccc(Cl)c1C(=O)N[C@@H](C)CS(C)(=O)=O (stereo partly drawn) [compound 561]	100%	100%
CSCC(C)NC(=O)c1c(OS(C)(=O)=O)cccc1C(=O)Nc1ccc(Cn2nc(C(F)(F)F)nc2C(F)(F)F)cc1C (stereo not drawn) [compound 251]	100%	100%
Cc1cc(Cn2nc(C(F)(F)F)nc2C(F)(F)F)ccc1NC(=O)c1cccc(Cl)c1C(=O)NC(C)(C)C[S+](C)[O-] (stereo not drawn) [compound 138]	100%	100%
CCS(=O)(=O)CC(C)NC(=O)c1c(I)cccc1C(=O)Nc1ccc(Cn2nc(C(F)(F)F)cc2C(F)(F)F)cc1C (stereo not drawn) [compound 93]	100%	100%
Cc1cc(Cn2nc(C(F)(F)F)cc2OC(F)F)ccc1NC(=O)c1cccc(I)c1C(=O)NC(C)CS(C)(=O)=O (racemic) [compound 107]	100%	100%
CSC[C@H](C)NC(=O)c1c(Cl)cccc1C(=O)Nc1ccc(Cn2nc(C(F)(F)C(F)(F)F)nc2C(F)(F)C(F)(F)F)cc1C [compound 681]	100%	100%
CSC[C@H](C)NC(=O)c1c(F)cccc1C(=O)Nc1ccc(Cn2nc(C(F)(F)F)cc2C(F)(F)F)cc1C [compound 549, N^1-{4-[3,5-bis(trifluoromethyl)-1H-pyrazol-1-ylmethyl]-2-methylphenyl}-3-fluoro-N^2-[1-(S)-1-methyl-2-methylsulfanyl-ethyl]-phthalamide]	100%	100%
Cc1cc(C(C)n2nc(C(F)(F)F)cc2C(F)(F)F)ccc1NC(=O)c1cccc(I)c1C(=O)NC(C)(C)CS(C)(=O)=O (stereo not drawn) [compound 567]	100%	100%
Cc1cc(Cn2cc(C(F)(F)C(F)(F)C(F)(F)F)c(C(F)(F)C(F)(F)C(F)(F)F)n2)ccc1NC(=O)c1cccc(Cl)c1C(=O)N[C@@H](C)C[S+](C)[O-] (stereo partly drawn) [compound 668]	100%	100%
Cc1cc(Cn2cc(C(F)(F)C(F)(F)F)c(C(F)(F)F)n2)ccc1NC(=O)c1cccc(Cl)c1C(=O)N[C@@H](C)CS(C)(=O)=O [compound 639]	100%	100%
Cc1cc(Cn2nc(C(F)(F)F)cc2C(F)(F)F)ccc1NC(=O)c1cccc([N+](=O)[O-])c1C(=O)N[C@@H](C)CS(C)(=O)=O [compound 545]	100%	100%
Cc1cc(Cn2cc(C(F)(F)C(F)(F)C(F)(F)F)c(C(F)(F)C(F)(F)C(F)(F)F)n2)ccc1NC(=O)c1cccc(I)c1C(=O)N[C@@H](C)C[S+](C)[O-] (stereo partly drawn) [compound 671]	100%	100%
Cc1cc(Cn2nc(C(F)(F)F)nc2C(F)(F)F)ccc1NC(=O)c1cccc(Cl)c1C(=O)NC(C)C[S+](C)[O-] (stereo not drawn) [compound 142]	100%	100%
Cc1cc(Cn2nc(C(F)(F)F)nc2C(F)(F)F)ccc1NC(=O)c1cccc([N+](=O)[O-])c1C(=O)N[C@@H](C)C[S+](C)[O-] (stereo partly drawn) [compound 547]	100%	100%
Cc1cc(-c2cc(OC(F)F)n(C(F)F)n2)ccc1NC(=O)c1cccc(I)c1C(=O)NC(C)CS(C)(=O)=O (stereo not drawn) [compound 520]	100%	100%
CSCC(C)NC(=O)c1c(Cl)cccc1C(=O)Nc1ccc(Cn2nc(C(F)(F)F)cc2C(F)(F)F)cc1C (racemic) [compound 11]	100%	100%
CSCC(C)NC(=O)c1c(I)cccc1C(=O)Nc1ccc(-c2cc(C(F)(F)F)nn2C(F)F)cc1C (stereo not drawn) [compound 512]	100%	100%
CSC[C@H](C)NC(=O)c1c(Cl)cccc1C(=O)Nc1ccc(Cn2cc(C(F)(F)C(F)(F)F)c(C(F)(F)C(F)(F)C(F)(F)F)n2)cc1C [compound 665]	100%	100%
Cc1cc(Cc2c(C(F)(F)F)nn(C(F)F)c2OC(F)F)ccc1NC(=O)c1cccc(I)c1C(=O)NC(C)CS(C)(=O)=O (stereo not drawn) [compound 264]	100%	100%
CSC[C@H](C)NC(=O)c1c(C(=O)Nc2ccc(Cn3nc(C(F)(F)F)cc3C(F)(F)F)cc2C)cccc1S(C)(=O)=O [compound 552]	100%	100%
CSC[C@H](C)NC(=O)c1c(I)cccc1C(=O)Nc1ccc(Cn2nc(C(F)(F)F)c(I)c2C(F)(F)F)cc1C [compound 554]	100%	100%
CSC[C@H](C)NC(=O)c1c(Cl)cccc1C(=O)Nc1ccc(Cn2cc(C(F)(F)C(F)(F)C(F)(F)F)c(C(F)(F)C(F)(F)F)n2)cc1C [compound 657]	100%	100%
CSC[C@H](C)NC(=O)c1c(Cl)cccc1C(=O)Nc1ccc(C(C)n2nc(C(F)(F)F)cc2C(F)(F)F)cc1C (stereo partly drawn) [compound 559]	100%	100%
Cc1cc(Cn2cc(C(F)(F)C(F)(F)F)c(C(F)(F)F)n2)ccc1NC(=O)c1cccc(I)c1C(=O)N[C@@H](C)CS(C)(=O)=O [compound 642]	100%	100%
Cc1cc(Cn2cc(C(F)(F)C(F)(F)C(F)(F)F)c(C(F)(F)C(F)(F)F)n2)ccc1NC(=O)c1cccc(I)c1C(=O)N[C@@H](C)CS(C)(=O)=O [compound 662]	100%	100%
CSC[C@H](C)NC(=O)c1c(I)cccc1C(=O)Nc1ccc(C(C)n2nc(C(F)(F)F)nc2C(F)(F)F)cc1C (stereo partly drawn) [compound 571]	100%	100%
